Reference: a melting point compilation (Tetko et al.; mined from patent text by program, amines drawn as free bases though some values may be those of a salt)

SMILES | melting point
Cc1c(-c2ccccc2)oc2c(C(=O)NCCCN3CCC(n4c(=O)[nH]c5ccccc54)CC3)cccc2c1=O | 238 to 241 °C
CCCCCCCCCCCCCCCCCCNC(=O)C(=O)NCCc1ccc(O)cc1 | 167 °C
COc1ccc(C2CCCCC2)cc1-c1csc(N)n1 | 67 °C
CS(=O)(=O)c1cccc(-c2cn(-c3nc(-c4ccc(C(F)(F)F)cc4)cc(C(F)(F)F)n3)cn2)c1 | 231 °C
O=C(c1ccccc1Cl)P1(=O)Oc2ccccc2-c2ccccc21 (stereo not given) | 108 to 110 °C
COCc1ccc(C(=O)O)c2ccccc12 | 133 to 134 °C
CCOC(=O)c1cn(Cc2ccccc2)c2cc(C3CC3)nn2c1=O | 160 to 165 °C
CN1CC2CC1CN2C1=Nc2cc(Cl)ccc2Sc2ccccc21 (stereo not given) | 62 to 64 °C
COc1ccc(OC2=CCNCC2)cc1 | 45 to 46 °C
NCc1c(CN(Cc2ccccc2)Cc2ccccc2)cccc1C(F)(F)C(F)(F)c1ccccc1 | 172 to 174 °C
COc1cc2c(Cl)c(C#N)cnc2cc1F | 160 to 162 °C
CCOC(=O)N1CCC2CN(c3c(F)cc4c(=O)c(C(=O)O)cn(C5CC5)c4c3F)CC21 (stereo not given) | 191 to 192 °C
C=C(Br)C(=O)Nc1ccccc1 | 90.5 to 92.5 °C
CC(Cc1c[nH]c2ccccc12)(NC(=O)OC(C)(C)C(Cl)(Cl)Cl)C(=O)NCCc1ccccn1 (stereo not given) | 130 to 133 °C
OC1Cn2cccc2Sc2ccccc21 (stereo not given) | 101 to 102 °C
CCCN(C(=S)n1ccnc1)c1ccccc1Cl | 59 to 61 °C
OCC1(c2ccc(Cl)cc2)CCC1 | 53 to 54 °C
C=CCN(C(=O)NC(C)(C)C)c1nc(NC(=O)NC(C)(C)C)c2cc([N+](=O)[O-])ccc2n1 | 105 to 106 °C
Cc1sc2c(c1CCN1CCC(c3noc4cc(F)ccc34)CC1)CCNC2 | 88 to 90 °C
O=C=NCc1cccnc1 | 141 to 146 °C

SMILES | melting point
CCOC(=O)C1Cc2cc(-c3ccc(NC(C)=O)cc3)ccc2O1 (stereo not given) | 164 to 166 °C
CCN(CC)P(N)(=O)N(c1ccc(S(=O)(=O)c2ccccc2)cc1)c1ccc(S(=O)(=O)c2ccccc2)cc1 (stereo not given) | 115 to 130 °C
CN1c2ccccc2-c2nccn2-c2ccccc21 | 194 to 197 °C
OOC12C=CC=CC=CC=CC=CC1=CC=CO2 (stereo not given) | 104 to 106 °C
CCOC(=O)c1cc(SC(F)F)c(-c2ccc(Cl)cc2)[nH]1 | 113 to 117 °C
CC(C)Cn1c(CNC(=O)OC(C)(C)C)c(-c2ccc(F)cc2)c2cc(O)ccc2c1=O | 229 to 230 °C
O=C(O)c1cn(-n2cnnc2)c2nc(Cl)c(F)cc2c1=O | 230 °C
CC12CCC3C(CCC4CCCCC43C)C1CC(F)C2=O (stereo not given) | 148 to 150 °C
Fc1ccc(-c2nc(SC(F)(F)C(F)F)[nH]c2-c2ccncc2)cc1 | 242 to 248 °C
Cn1c2cc(C(F)(F)F)ccc2c2oc(C(=O)Cl)cc21 | 155 to 156 °C
O=C(O)Cn1cccc(NC(=O)OCc2ccccc2)c1=O | 171 to 173 °C
CCOC(=O)c1ccc(-c2coc(-c3cccc(C(F)(F)F)c3)n2)cc1 | 132 to 133 °C
CC(CCc1cccc(OCCC(NC(=O)OCc2ccccc2)C(=O)O)c1)=NNC=NN (stereo not given) | 95 to 100 °C
COc1cc(OC)nc(SC2CCCC2CC(=O)O)n1 (stereo not given) | 125 to 127 °C
CCOC(=O)CC1(S(N)(=O)=O)c2ccccc2-c2ccccc21 | 167 to 170 °C
CCOC(CNC(=S)Nc1nccs1)OCC | 118 to 119 °C
CCOc1cccc(-n2nc(C)c3c(O)c(C(=O)c4ccccc4)cnc32)n1 | 160 to 162 °C
CCC1c2c(ncn2C)CCN1C(=O)NC(C)C (stereo not given) | 220 °C
Cc1cc(F)ccc1-c1nc(-c2cn(N)c(=O)[nH]c2=O)nc2c1ccc(=O)n2-c1c(F)cccc1F | > 300 °C
Cc1cccc(-n2nc(C)cc2-c2ccnc(N(C)C)c2)c1 | 84 to 85 °C
